Measurements as given in article PMC10484922, “Discovery of a selective and biologically active low-molecular weight antagonist of human interleukin-1β” (Nature Communications, 2023).

Experiments:
[1] = test system: HEK-Blue IL-1β cells stimulated with hIL-1β; test: HEK293 reporter gene assay, hIL-1β as trigger; assay type: cell-based, human; settings: inhibitor 3nM
Procedure: (§1) We used HEK-Blue™ IL-1β cells that respond specifically to IL-1 (# hkb-il1b, InvivoGen). These cells can detect IL-1α and IL-1β, as these cytokines bind to the same receptor, IL-1R1. They express a Seap reporter gene under the control of the IFN-β minimal promoter fused to five NF-kappaB and five AP-1 binding sites. Thirty microliters (300,000 cells/ml) per well of a 384-well plate were plated overnight. Cells were then stimulated with graded concentrations of cytokines (hIL-1α or hIL-1β) in the absence or presence of canakinumab (Ilaris®, ILARI LYVI 150MG 22GLW.012, batch U003 0409)[22], anakinra (Kineret®, 100 mg/0.67 ml injectable solution, Sobi)[23], or compound (S)-2 (compounds were pre-mixed for 1 h with the cytokine prior to addition to cells) and further incubated overnight before assessment of Seap activity.

[2] = test system: HEK-Blue IL-1β cells stimulated with hIL-1α; test: HEK293 reporter gene assay, hIL-1α as trigger; assay type: cell-based, human; settings: inhibitor 3nM
Procedure: as §1

**Q.** For “canakinumab: anti-hIL-1β antibody [reference compound]”, which “reporter gene assay signal, mean (Figure 3d)” value (from here on “reporter gene assay signal”) ([1]; IL-1beta 3.04596 pg/ml) is on record?
**A.** 0.06

**Q.** And the “reporter gene assay signal” value ([1]; IL-1beta 6.09192 pg/ml)?
**A.** 0.06

**Q.** And the “reporter gene assay signal” value ([1]; IL-1beta 12.1838 pg/ml)?
**A.** 0.06

**Q.** And the “reporter gene assay signal” value ([1]; IL-1beta 24.3677 pg/ml)?
**A.** 0.06

**Q.** And the “reporter gene assay signal” value ([1]; IL-1beta 48.7353 pg/ml)?
**A.** 0.06

**Q.** And the “reporter gene assay signal” value ([1]; IL-1beta 97.4707 pg/ml)?
**A.** 0.07

**Q.** And the “reporter gene assay signal” value ([1]; IL-1beta 194.941 pg/ml)?
**A.** 0.08

**Q.** And the “reporter gene assay signal” value ([1]; IL-1beta 389.883 pg/ml)?
**A.** 0.1

**Q.** What about the “reporter gene assay signal” value ([1]; IL-1beta 779.766 pg/ml) of the same substance?
**A.** 0.2

**Q.** What about the “reporter gene assay signal” value ([1]; IL-1beta 1559.53 pg/ml) of the same substance?
**A.** 0.42

**Q.** And the “reporter gene assay signal” value ([1]; IL-1beta 3119.06 pg/ml)?
**A.** 0.74

**Q.** And the “reporter gene assay signal” value ([1]; IL-1beta 6238.12 pg/ml)?
**A.** 1.18

**Q.** And the “reporter gene assay signal” value ([1]; IL-1beta 12476.2 pg/ml)?
**A.** 1.55

**Q.** What about the “reporter gene assay signal” value ([1]; IL-1beta 24952.5 pg/ml) of the same substance?
**A.** 1.78

**Q.** And the “reporter gene assay signal” value ([1]; IL-1beta 49905 pg/ml)?
**A.** 1.85

**Q.** And the “reporter gene assay signal” value ([2]; IL-1alpha 3.04596 pg/ml)?
**A.** 0.08

**Q.** What about the “reporter gene assay signal” value ([2]; IL-1alpha 6.09192 pg/ml) of the same substance?
**A.** 0.12

**Q.** What about the “reporter gene assay signal” value ([2]; IL-1alpha 12.1838 pg/ml) of the same substance?
**A.** 0.19

**Q.** And the “reporter gene assay signal” value ([2]; IL-1alpha 24.3677 pg/ml)?
**A.** 0.36

**Q.** What about the “reporter gene assay signal” value ([2]; IL-1alpha 48.7353 pg/ml) of the same substance?
**A.** 0.66

**Q.** And the “reporter gene assay signal” value ([2]; IL-1alpha 97.4707 pg/ml)?
**A.** 1.07

**Q.** What about the “reporter gene assay signal” value ([2]; IL-1alpha 194.941 pg/ml) of the same substance?
**A.** 1.44

**Q.** What about the “reporter gene assay signal” value ([2]; IL-1alpha 389.883 pg/ml) of the same substance?
**A.** 1.69

**Q.** What about the “reporter gene assay signal” value ([2]; IL-1alpha 779.766 pg/ml) of the same substance?
**A.** 1.8

**Q.** What about the “reporter gene assay signal” value ([2]; IL-1alpha 1559.53 pg/ml) of the same substance?
**A.** 1.86

**Q.** And the “reporter gene assay signal” value ([2]; IL-1alpha 3119.06 pg/ml)?
**A.** 1.88

**Q.** What about the “reporter gene assay signal” value ([2]; IL-1alpha 6238.12 pg/ml) of the same substance?
**A.** 1.91

**Q.** And the “reporter gene assay signal” value ([2]; IL-1alpha 12476.2 pg/ml)?
**A.** 1.92

**Q.** What about the “reporter gene assay signal” value ([2]; IL-1alpha 24952.5 pg/ml) of the same substance?
**A.** 2

**Q.** And the “reporter gene assay signal” value ([2]; IL-1alpha 49905 pg/ml)?
**A.** 1.98
